Legend:
HDAC isoforms = conditions: cited from earlier work; for isoform selectivity: prior work
[1] = system: HeLa cell lysates as the source of all HDAC proteins; assay: Global HDAC inhibition with HeLa cell lysates; type: biochemical; conditions: mean and standard error of at least three independent trials
HDAC6 = biological target: T1, HDAC6 (Homo sapiens, UniProt Q9UBN7); assay: ELISA-based HDAC activity assay, HDAC6; type: biochemical; conditions: from IC50 values (Tables 2 and S6)
T1 sequence (Q9UBN7 1-1215): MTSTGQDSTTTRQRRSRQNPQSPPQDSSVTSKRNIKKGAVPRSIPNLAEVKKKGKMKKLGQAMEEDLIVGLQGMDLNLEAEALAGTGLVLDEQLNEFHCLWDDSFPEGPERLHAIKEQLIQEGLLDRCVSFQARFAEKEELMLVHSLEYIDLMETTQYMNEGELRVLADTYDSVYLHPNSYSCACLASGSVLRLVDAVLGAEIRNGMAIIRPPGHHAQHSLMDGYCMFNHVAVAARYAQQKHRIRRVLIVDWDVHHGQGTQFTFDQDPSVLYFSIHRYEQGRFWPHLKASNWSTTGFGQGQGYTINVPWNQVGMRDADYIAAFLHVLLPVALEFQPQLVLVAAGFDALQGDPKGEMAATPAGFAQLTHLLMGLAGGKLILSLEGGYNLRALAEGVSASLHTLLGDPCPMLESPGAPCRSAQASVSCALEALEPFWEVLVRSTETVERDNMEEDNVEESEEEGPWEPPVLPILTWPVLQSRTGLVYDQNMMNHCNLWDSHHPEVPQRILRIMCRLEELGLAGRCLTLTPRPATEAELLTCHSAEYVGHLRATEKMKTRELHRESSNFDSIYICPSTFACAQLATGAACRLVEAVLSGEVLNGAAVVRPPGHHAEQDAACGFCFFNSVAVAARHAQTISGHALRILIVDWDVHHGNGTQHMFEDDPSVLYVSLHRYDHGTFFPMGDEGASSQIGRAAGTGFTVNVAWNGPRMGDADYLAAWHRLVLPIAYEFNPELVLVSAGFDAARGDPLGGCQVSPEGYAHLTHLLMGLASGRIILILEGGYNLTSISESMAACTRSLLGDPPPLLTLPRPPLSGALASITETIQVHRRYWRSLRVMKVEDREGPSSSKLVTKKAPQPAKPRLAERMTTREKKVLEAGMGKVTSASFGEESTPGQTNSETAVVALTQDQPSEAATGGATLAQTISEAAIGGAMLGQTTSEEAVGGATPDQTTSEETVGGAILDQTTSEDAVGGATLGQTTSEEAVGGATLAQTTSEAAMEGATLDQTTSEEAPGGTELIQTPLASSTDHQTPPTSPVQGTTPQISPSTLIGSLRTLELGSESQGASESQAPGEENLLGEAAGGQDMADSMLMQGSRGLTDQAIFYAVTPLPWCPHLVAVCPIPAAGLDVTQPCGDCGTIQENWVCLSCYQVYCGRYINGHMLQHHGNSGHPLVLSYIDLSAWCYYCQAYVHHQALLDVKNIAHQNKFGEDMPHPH

[2] = system: Class I HDAC (HDAC1, 2, and 3) (substrate acetyl-histone 3, AcH3); assay: In cellulo selectivity, western blot of acetyl-histone H3 in U937 cells; type: cell-based; conditions: SAHA 5 µM, 1e 10–40 µM, compared to DMSO control
[3] = system: HDAC6 (substrate acetyl-α-tubulin, AcTub); assay: In cellulo selectivity, western blot of acetyl-α-tubulin in U937 cells; type: cell-based; conditions: SAHA 5 µM, 1e 10–40 µM, compared to DMSO control

In the case of CCCCCCC(CCCCCC(=O)Nc1ccccc1)C(=O)NO (stereo not shown) [C2-hexyl SAHA], the “selectivity for HDAC6 and 8 over HDAC1, 2, and 3” value (HDAC isoforms; previously reported) is given as 49- to 300 fold, the isoform selectivity (HDAC isoforms) is given as “dual HDAC6/8 selectivity” and the IC50 (HDAC isoforms; read-out: IC50 values against HDAC6 and 8, previously reported) is given as 600 to 2000 nM.

For CCC(CCCCC(=O)Nc1ccccc1)CC(=O)NO (stereo not shown) [C3-ethyl SAHA], the isoform selectivity (HDAC isoforms) is listed as “HDAC6 selectivity”.

In the case of CCCCC(CCCCC(=O)NO)CC(=O)Nc1ccccc1 (stereo not shown) [C6-butyl SAHA], the isoform selectivity (HDAC isoforms) is given as “inhibited HDAC1 and 6 over HDAC3”.

CC(CCCC(=O)NO)CCC(=O)Nc1ccccc1 (stereo not shown) [Compound 1a, C5-methyl SAHA] gave an IC50 [1] of 100 ± 10 nM.

With CCCCC(CCCC(=O)NO)CCC(=O)Nc1ccccc1 (stereo not shown) [Compound 1b, C5-n-butyl SAHA] the “selectivity for HDAC6 and HDAC8 over HDAC1, 2, and 3” value (HDAC6) was 3- to 5 fold.

For CCCCCCC(CCCC(=O)NO)CCC(=O)Nc1ccccc1 (stereo not shown) [Compound 1c, C5-n-hexyl SAHA], the “selectivity for HDAC6 and HDAC8 over HDAC1, 2, and 3” value (HDAC6) was 5- to 7 fold.

With O=C(CCCC(CCC(=O)Nc1ccccc1)Cc1ccccc1)NO (stereo not shown) [Compound 1e, C5-benzyl SAHA] the “levels of acetyl-histone H3 (AcH3)” value [2] was “increased levels” and the “levels of acetyl-α-tubulin (AcTub)” value [3] was “dose dependent selective increase”.
